These results are taken from ChEMBL document CHEMBL1921801, “Discovery and optimization of 2-phenyloxazole derivatives as diacylglycerol acyltransferase-1 inhibitors” (Bioorg Med Chem Lett, 2011).

pIC50: −log10 of the molar value. Converted amounts (≈) assume the structure as drawn. The source made the active and inactive calls.

Data set [1] is described as follows: Solubility of the compound. Type of data set: physicochemical.
Data set [2] in a line: AUC in Wistar rat at 5 mg/kg, iv. Conditions: plasma. Also noted: dose 5 mg/kg, route intravenous. Type of data set: ADME, organism-based.
Data set [3] has as its system Rattus norvegicus. Put plainly: Antiobesity activity in po dosed diet induced obese Sprague-Dawley rat model assessed as reduction in plasma triglycerides level administered qd for 3 weeks measured on day 21. Type of data set: functional, organism-based.
Data set [4] relates to Rattus norvegicus. Put plainly: Toxicity in diet induced obese Sprague-Dawley rat model assessed as change in brain weight administered orally after 22 days. Type of data set: organism-based. The conditions noted are these: in vivo, po, 528 h.
The subject of data set [5] is Rattus norvegicus. Put plainly: Cmax in Wistar rat at 50 mg/kg, po. The format is ADME, organism-based. Also noted: dose 50 mg/kg, route oral. The conditions noted are these: in vivo.
Data set [6] deals with Rattus norvegicus. Briefly: Toxicity in diet induced obese Sprague-Dawley rat model assessed as change in kidney weight administered orally after 22 days. The format is organism-based. Conditions: in vivo, po, 528 h.
The next data set is filed under the species Cavia porcellus. Briefly: Cardiotoxicity in guinea pig Langendorff heart model assessed as QT prolongation at >= 0.47 uM. The format is toxicity.
Data set [7] has as its system Rattus norvegicus. Briefly: Antiobesity activity in diet induced obese Sprague-Dawley rat model assessed as reduction in plasma triglycerides level at 50 mg/kg, po qd for 3 weeks measured on day 21 relative to vehicle treated control. The format is functional. Also noted: scale not given: the % may be the effect or the level left.
Data set [8] is described as follows: AUC in Wistar rat at 50 mg/kg, po. The format is ADME, organism-based. Also noted: dose 50 mg/kg, route oral. Conditions: plasma.
Data set [9] concerns Rattus norvegicus. Put plainly: Cmax in diet induced obese Sprague-Dawley rat model at 50 mg/kg, po qd for 3 weeks measured on day 21. Details: dose 50 mg/kg, route oral. The format is ADME, organism-based. The conditions noted are these: in vivo, 504 h.
Data set [10] in a line: Genotoxicity in micronucleus by micronucleus assay.
For a further data set, the system named is Salmonella typhimurium. Briefly: Mutagenic activity in Salmonella Typhimurium by Ames test. The format is toxicity, organism-based. Conditions: salmonella enterica subsp. enterica serovar typhimurium. (In general: The Ames test detects mutagens through reverse mutation in bacteria.)
In data set [11] the test system is Rattus norvegicus. Put plainly: Antiobesity activity in diet induced obese Sprague-Dawley rat model assessed as decrease in lean muscle at 50 mg/kg, po qd for 3 weeks measured on day 21 relative to vehicle treated control. Type of data set: functional, organism-based. Details: dose 50 mg/kg.
The test system of data set [12] is Rattus norvegicus. Put plainly: Antiobesity activity in po dosed diet induced obese Sprague-Dawley rat model assessed as reduction in weight gain administered qd for 3 weeks relative to vehicle treated control. The format is functional, organism-based.
Data set [13] concerns Rattus norvegicus. Put plainly: Toxicity in diet induced obese Sprague-Dawley rat model assessed as change in liver weight administered orally after 22 days. The format is organism-based. Conditions: in vivo, po, 528 h.
The nature of data set [14]: Oral bioavailability in Wistar rat at 50 mg/kg. Conditions: in vivo. Type of data set: ADME, organism-based.
Data set [15] addresses T1, Diacylglycerol O-acyltransferase 1 (Rattus norvegicus, UniProt Q9ERM3).
T1 sequence (Q9ERM3 whole entry): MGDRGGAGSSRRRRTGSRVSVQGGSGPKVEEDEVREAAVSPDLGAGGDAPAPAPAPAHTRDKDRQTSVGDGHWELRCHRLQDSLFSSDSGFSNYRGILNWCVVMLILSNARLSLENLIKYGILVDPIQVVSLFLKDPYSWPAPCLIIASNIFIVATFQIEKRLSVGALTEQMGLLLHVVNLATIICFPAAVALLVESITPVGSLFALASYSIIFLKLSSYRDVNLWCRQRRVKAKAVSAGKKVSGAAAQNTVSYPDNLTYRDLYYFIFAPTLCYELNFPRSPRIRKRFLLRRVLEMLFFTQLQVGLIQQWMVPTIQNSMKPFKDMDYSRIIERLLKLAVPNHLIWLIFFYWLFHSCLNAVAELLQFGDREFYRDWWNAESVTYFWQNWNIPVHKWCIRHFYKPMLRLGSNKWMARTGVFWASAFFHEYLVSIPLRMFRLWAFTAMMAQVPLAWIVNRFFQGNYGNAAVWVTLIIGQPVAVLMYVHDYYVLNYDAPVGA
Briefly: Inhibition of rat DGAT1.

Data set [16] is described as follows: Cmax in diet induced obese Sprague-Dawley rat model at 5 mg/kg, po qd for 3 weeks measured on day 21. The format is ADME, organism-based. The conditions noted are these: in vivo. Also noted: dose 5 mg/kg, route oral.
A short description of data set [17]: Kinetic solubility of the compound in phosphate buffered saline at pH 6.5. The format is physicochemical. Conditions: read-out: Kinetic_solubility.
Data set [18] deals with Rattus norvegicus. Put plainly: Antiobesity activity in diet induced obese Sprague-Dawley rat model assessed as reduction in weight gain at 50 mg/kg, po qd for 3 weeks measured on day 21 relative to vehicle treated control. Details: scale not given: the % may be the effect or the level left. Type of data set: functional.
Data set [19] deals with Rattus norvegicus. Put plainly: Antiobesity activity in diet induced obese Sprague-Dawley rat model assessed as reduction in plasma free fatty acid level at 50 mg/kg, po qd for 3 weeks measured on day 21. The format is functional, organism-based. Also noted: dose 50 mg/kg.
Data set [20] is described as follows: Cmax in diet induced obese Sprague-Dawley rat model at 25 mg/kg, po qd for 3 weeks measured on day 21. Also noted: dose 25 mg/kg, route oral. Conditions: in vivo. The format is ADME, organism-based.
Data set [21] is described as follows: Half life in Wistar rat at 5 mg/kg, iv. The conditions noted are these: in vivo. The format is ADME, organism-based. Details: dose 5 mg/kg, route intravenous.
The subject of data set [22] is Rattus norvegicus. Briefly: Antiobesity activity in diet induced obese Sprague-Dawley rat model assessed as reduction in weight gain at 25 mg/kg, po qd for 3 weeks measured on day 21 relative to vehicle treated control. Type of data set: functional. Also noted: scale not given: the % may be the effect or the level left.
The test system of data set [23] is Rattus norvegicus. Put plainly: Toxicity in diet induced obese Sprague-Dawley rat model assessed as change in heart weight administered orally after 22 days. The format is organism-based. The conditions noted are these: in vivo, po, 528 h.
Data set [24] in a line: Solubility of the compound in simulated gastric fluid. Type of data set: physicochemical.
The test system of data set [25] is Rattus norvegicus. Briefly: Antiobesity activity in diet induced obese Sprague-Dawley rat model assessed as reduction in total cholesterol level at 50 mg/kg, po qd for 3 weeks measured on day 21. Type of data set: functional, organism-based. Also noted: dose 50 mg/kg.
Data set [26] relates to Rattus norvegicus. Briefly: Antiobesity activity in diet induced obese Sprague-Dawley rat model assessed as decrease in fat pad mass at 50 mg/kg, po qd for 3 weeks measured on day 21 relative to vehicle treated control. The format is functional, organism-based. Details: dose 50 mg/kg.
The test system of data set [27] is Rattus norvegicus. Briefly: Toxicity in diet induced obese Sprague-Dawley rat model assessed as change in liver enzyme activity administered orally after 22 days. Type of data set: organism-based. Conditions: in vivo, po, 528 h.
A short description of data set [28]: Tmax in Wistar rat at 50 mg/kg, po. Type of data set: ADME, organism-based. Also noted: dose 50 mg/kg, route oral. Conditions: in vivo.
The nature of data set [29]: Fraction unbound in human serum. Type of data set: ADME, cell-free.
The nature of data set [30]: Volume of distribution in Wistar rat at 5 mg/kg, iv. Conditions: in vivo. Also noted: dose 5 mg/kg, route intravenous. Type of data set: ADME, organism-based.

As usually defined, the solubility is the concentration that dissolves in the medium under given conditions. `CCCn1[nH]c(=O)c2cc(NC(=O)c3nc(-c4ccccc4)oc3C(F)(F)F)ccc21`: the solubility result in [1] is “Insoluble”.
As a reminder, the AUC is concentration integrated over time. One may read the Cmax as the highest concentration seen after dosing. What is called bioavailability is the share of a dose that reaches the circulation, judged against a reference dose that is usually intravenous. The term pIC50 denotes −log10 of the IC50, conventionally taken in molar units. A word on the half-life: it is the time needed for the level to fall by half in the phase considered. The Tmax is the time at which the peak concentration occurs. Usually fraction unbound stands for free concentration divided by total concentration. By Vd is commonly meant a proportionality between amount in the body and measured concentration, not a real space. Turning to `COCCN(C)c1ccc(NC(=O)c2nc(-c3ccccc3)oc2C(F)(F)F)cn1`, the figures for the exposure (AUC) in data set [2] and in [8] were 6160 ng·h/mL and 47200 ng·h/mL, respectively. Besides, the Activity entry in the data set on Rattus norvegicus [3] was “Dose-dependent effect”; with Rattus norvegicus [4], “Non-toxic”; in the data set with Rattus norvegicus [6] it was “Non-toxic”; in the data set listed under Cavia porcellus, “Toxic”; with Rattus norvegicus [7], 64%; in data set [10], “Non-toxic”. The Activity result was “Non-toxic” in the data set with Salmonella typhimurium; “Dose-dependent effect” in the data set on Rattus norvegicus [12]; “Non-toxic” with Rattus norvegicus [13]; 8% with Rattus norvegicus [18]; 4% with Rattus norvegicus [22]; “Non-toxic” in the data set on Rattus norvegicus [23]. The Activity result in the data set on Rattus norvegicus [27] was “Non-toxic”. Further, the Cmax in the data set with Rattus norvegicus [5] came to 10200 ng/mL; in the data set on Rattus norvegicus [9] it was 12.2 µM; in data set [16], 2600 nM; in data set [20], 7.8 µM. In addition, in the data set with Rattus norvegicus [11], the result was inactive. In [14], this compound returned a bioavailability of 77%. Besides, the pIC50 in [15] is 6.92. Also, the solubility kinetic in data set [17] is 1 µg/mL (≈ 2.38 µM). Besides, the result in the data set with Rattus norvegicus [19], in the data set with Rattus norvegicus [25] and in the data set on Rattus norvegicus [26] was Active. Further, in data set [21], the half-life was 117 min. The solubility in data set [24] is 770 µg/mL (≈ 1830 µM). For the same compound, the Tmax in [28] was determined as 1 h. For the same compound, in data set [29], the fraction unbound was 0.015. In addition, the Vd in [30] was found to be 1.6 L/kg.
